# Values of other authors as cited in US20250177336A1 (RX BANDZ, INC., priority 2023, published 2025).
# Conditions: zwitterionic form predominates
structure (smiles),measurement,value
"NC[C@H]1CC[C@H](C(=O)O)CC1 [TXA, Tranexamic acid]",isoelectric point,~7.3 pH
